Assay results from paper PMC8424689 (ACS infectious diseases, 2021).

Target: SARS-CoV-2 main protease (M^pro) (Severe acute respiratory syndrome coronavirus 2, UniProt P0DTD1)

Q: RVVKLQ/ANELMP [nsp8/9 N1′A] was tested. Which “Fold change = (kcat/KM) nsp8/9 analog /(kcat/KM) nsp8/9” value did it give?
A: Its value is 2.9.

Q: What about the Km of the same substance?
A: The Km was 22 ± 3 µM.

Q: And the kcat?
A: Its kcat is 0.022 ± 0.001 S^−1.

Q: What about the “kcat/KM (catalytic efficiency)” value of the same substance?
A: Its value is 1.0 ± 0.1 × 10^3 M^−1 s^−1.

Q: Which results are given for RVVKLQ/NAELMP [nsp8/9 N2′A]?
A: Fold change = (kcat/KM) nsp8/9 analog /(kcat/KM) nsp8/9: 2.1; Km: 46 ± 5 µM; kcat: 0.034 ± 0.002 S^−1; kcat/KM (catalytic efficiency): 7.5 ±0.8 × 10^2 M^−1 s^−1

Q: RVVKLQ/NDELMP [nsp8/9 N2′D] was tested. Which “Fold change = (kcat/KM) nsp8/9 analog /(kcat/KM) nsp8/9” value did it give?
A: The value was 0.4.

Q: What about the Km of the same substance?
A: Its Km is 19 ± 1 µM.

Q: What about the kcat of the same substance?
A: The kcat was 0.0029 ± 0.0001 S^−1.

Q: And the “kcat/KM (catalytic efficiency)” value?
A: The value was 1.6 ± 1.2 × 10^2 M^−1 s^−1.

Q: What does the source list for RVVKLQ/NNELMP [nsp8/9]?
A: Fold change = (kcat/KM) nsp8/9 analog /(kcat/KM) nsp8/9: 1.0; Km: 36 ± 6 µM; kcat: 0.013 ± 0.001 S^−1; kcat/KM (catalytic efficiency): 3.6 ± 0.7 × 10^2 M^−1 s^−1

Q: TSAVLQ/SGFRKM [nsp4/5] was tested. Which Km did it give?
A: The Km was 41 ± 9 µM.

Q: What about the “fold difference in kcat/KM, nsp4/5 versus nsp8/9” value of the same substance?
A: The value was 36 fold.

Q: What about the kcat of the same substance?
A: Its kcat is 0.52 ± 0.07 S^−1.

Q: What about the “kcat/KM (catalytic efficiency)” value of the same substance?
A: The value was 1.3 ± 0.3 × 10^4 M^−1 s^−1.
